# Assays:
# TLR8 = biological target: T1, TLR8 (Homo sapiens, UniProt Q9NR97); assay: In vitro human TLR8 binding reporter assay (HEK-Blue, NF-kB/AP1-inducible SEAP); format: cell-based; settings: activity range class, read-out: TLR8 Agonist EC50
# T1 construct: human HEK-Blue cells co-expressing a TLR7 or TLR8 gene
# T1 sequence (Q9NR97 27-1041): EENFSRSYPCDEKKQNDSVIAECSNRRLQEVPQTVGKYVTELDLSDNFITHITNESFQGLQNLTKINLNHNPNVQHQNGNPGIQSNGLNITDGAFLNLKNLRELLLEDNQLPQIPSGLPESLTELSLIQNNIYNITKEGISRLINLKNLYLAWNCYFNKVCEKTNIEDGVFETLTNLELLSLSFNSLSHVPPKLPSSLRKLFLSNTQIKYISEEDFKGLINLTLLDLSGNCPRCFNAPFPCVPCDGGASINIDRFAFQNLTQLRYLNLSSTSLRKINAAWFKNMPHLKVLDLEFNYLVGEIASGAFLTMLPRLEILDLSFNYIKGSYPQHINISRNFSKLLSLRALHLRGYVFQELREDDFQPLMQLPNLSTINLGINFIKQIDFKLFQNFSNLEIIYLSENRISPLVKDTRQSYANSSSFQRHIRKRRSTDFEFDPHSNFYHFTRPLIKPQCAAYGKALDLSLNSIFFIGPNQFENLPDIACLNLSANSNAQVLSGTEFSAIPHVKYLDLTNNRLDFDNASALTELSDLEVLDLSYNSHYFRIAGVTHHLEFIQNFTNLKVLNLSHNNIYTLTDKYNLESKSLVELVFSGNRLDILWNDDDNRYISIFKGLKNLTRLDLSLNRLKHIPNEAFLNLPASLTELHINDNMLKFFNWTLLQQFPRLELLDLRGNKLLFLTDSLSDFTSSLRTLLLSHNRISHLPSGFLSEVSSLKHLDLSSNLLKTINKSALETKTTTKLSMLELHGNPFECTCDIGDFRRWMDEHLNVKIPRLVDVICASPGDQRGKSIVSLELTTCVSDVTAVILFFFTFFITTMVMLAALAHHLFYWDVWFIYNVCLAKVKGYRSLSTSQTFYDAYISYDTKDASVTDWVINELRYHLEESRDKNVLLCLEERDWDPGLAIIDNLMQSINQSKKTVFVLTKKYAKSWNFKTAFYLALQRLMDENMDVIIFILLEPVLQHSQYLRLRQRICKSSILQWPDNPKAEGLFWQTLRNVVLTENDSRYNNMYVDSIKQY
# Method in brief: (§1)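 HEK-Blue cells expressing human TLR7 or TLR8 with NF-kB/AP1-inducible SEAP reporter, plated 24 h, then compound-treated 18 h at 37° C, 5% CO2. EC50 normalized to 100% Ymax set by 50 μM reference standard.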
# TLR7 = biological target: T2, TLR7 (Homo sapiens, UniProt Q9NYK1); assay: In vitro human TLR7 binding reporter assay (HEK-Blue, NF-kB/AP1-inducible SEAP); format: cell-based; settings: activity range class, read-out: TLR7 Agonist EC50
# T2 construct: human HEK-Blue cells co-expressing a TLR7 or TLR8 gene
# T2 sequence (Q9NYK1 27-1049): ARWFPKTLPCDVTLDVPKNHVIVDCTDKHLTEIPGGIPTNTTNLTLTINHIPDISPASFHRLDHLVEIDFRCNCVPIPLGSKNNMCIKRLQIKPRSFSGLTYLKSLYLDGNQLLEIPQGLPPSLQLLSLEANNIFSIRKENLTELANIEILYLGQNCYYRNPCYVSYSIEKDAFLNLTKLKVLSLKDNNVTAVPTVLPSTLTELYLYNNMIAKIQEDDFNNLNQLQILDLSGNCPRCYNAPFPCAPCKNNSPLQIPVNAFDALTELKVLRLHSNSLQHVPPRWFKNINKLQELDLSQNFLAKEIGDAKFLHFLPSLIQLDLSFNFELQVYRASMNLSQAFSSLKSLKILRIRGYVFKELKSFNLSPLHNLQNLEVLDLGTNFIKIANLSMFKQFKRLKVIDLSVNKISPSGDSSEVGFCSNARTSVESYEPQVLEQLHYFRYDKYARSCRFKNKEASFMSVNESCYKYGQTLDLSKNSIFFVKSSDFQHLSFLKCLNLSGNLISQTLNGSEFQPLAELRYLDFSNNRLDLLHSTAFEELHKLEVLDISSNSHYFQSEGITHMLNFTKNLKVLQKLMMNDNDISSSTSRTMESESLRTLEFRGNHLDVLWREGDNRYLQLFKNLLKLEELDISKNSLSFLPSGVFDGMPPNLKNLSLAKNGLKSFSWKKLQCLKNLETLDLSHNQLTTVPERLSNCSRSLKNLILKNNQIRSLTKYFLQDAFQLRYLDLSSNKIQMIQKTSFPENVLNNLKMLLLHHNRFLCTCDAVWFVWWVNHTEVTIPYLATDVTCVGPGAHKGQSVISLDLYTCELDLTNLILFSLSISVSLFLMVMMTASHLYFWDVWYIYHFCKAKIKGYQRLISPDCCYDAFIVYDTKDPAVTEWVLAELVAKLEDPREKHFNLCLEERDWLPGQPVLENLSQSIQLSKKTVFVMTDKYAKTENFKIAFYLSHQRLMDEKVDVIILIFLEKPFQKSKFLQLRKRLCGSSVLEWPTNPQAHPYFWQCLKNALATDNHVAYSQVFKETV
# Method in brief: as §1
# THP-1 cells = assay: Measurement of IL-1β production, hTRF protocol (second alternative procedure), THP-1 cells; format: cell-based, human; settings: Homo sapiens, THP-1, IL-1β production, human; read-out: NLRP3 hILIB EC50
# Method in brief: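 Compounds, dilution series starting at a final 10 μM, were incubated 2 hours at 37° C with PMA-differentiated THP-1 cells (50 ng/ml overnight; 50,000 cells/well, 2% FBS RPMI). Released IL-1β quantified in supernatant by hTRF kit with 1:40 antibody dilution, 4° C overnight, 665/615 nm ratio.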
EC50 (TLR8) [µM],EC50 (TLR7) [µM],EC50 (THP-1 cells) [µM],Structure (SMILES)
> 100,> 100,0.31,"Nc1nc2cc(-c3ccn[nH]3)ccc2c2[nH]c(CC3CCCO3)cc12 (stereo not drawn) [Example 156, 2-[(oxolan-2-yl)methyl]-7-(1H-pyrazol-5-yl)-1H-pyrrolo[3,2-c]quinolin-4-amine]"
> 100,> 100,5.17,"CC(C)(F)C(=O)NCCn1nc2c(N)nc3cc(-c4ccn[nH]4)ccc3c2n1 [Example 157, N-{2-[4-amino-7-(1H-pyrazol-5-yl)-2H-[1,2,3]triazolo[4,5-c]quinolin-2-yl]ethyl}-2-fluoro-2-methylpropanamide]"
20 to 100,> 100,0.97,Nc1nc2cc(-c3ccn[nH]3)ccc2c2nn(CCNC(=O)c3csc(Cl)n3)nc12 [Example 158]
> 100,> 100,0.68,Nc1nc2cc(-c3ccn[nH]3)ccc2c2nn(CCNC(=O)c3ccccn3)nc12 [Example 159]
> 100,> 100,0.7,Nc1nc2cc(-c3ccn[nH]3)ccc2c2nn(CCNC(=O)c3ccc(F)cn3)nc12 [Example 160]
> 100,> 100,5.82,CN(C)CCn1nc2c(N)nc3cc(-c4ccn[nH]4)ccc3c2n1 [Example 161]
> 100,> 100,1.22,COCCn1nc2c(N)nc3cc(-c4ccn[nH]4)ccc3c2n1 [Example 162]
> 100,> 100,0.06,Nc1nc2cc(-c3cc[nH]n3)ccc2c2cn(CCc3ccccn3)nc12 [Example 163]
> 100,> 100,0.25,Nc1nc2cc(-c3cc[nH]n3)ccc2c2cn(CC(=O)Nc3ccccc3F)nc12 [Example 164]
20 to 100,> 100,0.14,Nc1nc2cc(-c3cc[nH]n3)ccc2c2cn(Cc3ccncc3)nc12 [Example 165]
> 100,> 100,0.31,Cc1cc(C)n(CCn2cc3c(n2)c(N)nc2cc(-c4cc[nH]n4)ccc23)n1 [Example 166]
> 100,> 100,0.15,Nc1nc2cc(-c3cc[nH]n3)ccc2c2cn(Cc3cccnc3)nc12 [Example 167]
20 to 100,> 100,0.2,Nc1nc2cc(-c3cc[nH]n3)ccc2c2cn(Cc3cscn3)nc12 [Example 168]
20 to 100,> 100,0.39,Nc1nc2cc(-c3cc[nH]n3)ccc2c2cn(Cc3nc(-c4ccccc4)no3)nc12 [Example 169]
> 100,> 100,1.98,CS(=O)(=O)CCn1cc2c(n1)c(N)nc1cc(-c3cc[nH]n3)ccc12 [Example 170]
> 100,> 100,0.6,CS(=O)(=O)CCCn1cc2c(n1)c(N)nc1cc(-c3cc[nH]n3)ccc12 [Example 171]
> 100,> 100,0.21,Nc1nc2cc(-c3cc[nH]n3)ccc2c2cn(Cc3nnc(-c4ccccc4)o3)nc12 [Example 172]
1 to 20,> 100,0.21,Cc1cc(Cn2cc3c(n2)c(N)nc2cc(-c4cc[nH]n4)ccc23)no1 [Example 173]
20 to 100,1 to 20,0.23,Cc1nc(Cn2cc3c(n2)c(N)nc2cc(-c4cc[nH]n4)ccc23)no1 [Example 174]
> 100,> 100,0.29,Nc1nc2cc(-c3cc[nH]n3)ccc2c2cn(CCc3c[nH]cn3)nc12 [Example 175]
20 to 100,20 to 100,0.05,Nc1nc2cc(-c3cc[nH]n3)ccc2c2cn(CCNC(=O)c3coc(Cl)n3)nc12 [Example 176]
> 100,> 100,2.23,Nc1nc2cc(-c3cc[nH]n3)ccc2c2cn(CCNC(=O)[C@H]3CCCO3)nc12 [Example 177]

# From patent publication US12037344B2, “NLRP3 modulators” (INNATE TUMOR IMMUNITY, INC., priority 2018, dated 2024)
